Results as given in US10022376B2 (Pfizer Inc., priority 2014, dated 2018).

These compounds were tested on rhIFNγ stimulated STAT-3 phosphorylation in the A549 human epithelial cell line (assay: A549 Cell Assay: Inhibition of pSTAT3). Conditions: Homo sapiens; A549 cells.
Format: cell-based
Experimental: A549 Cell Assay: Inhibition of pSTAT3
An assay measuring the efficacy of JAK inhibitors on the functional response of recombinant human interferon γ (rhIFNγ) stimulated STAT-3 phosphorylation in the A549 human epithelial cell line.
A549 cells (ATCC #CCL-185), were plated at 30,000 cells/well in 96 well flat bottomed tissue culture plates (BD#353072) in 200 μL of growth medium (DMEM, Pfizer media prep, with 10% Fetal Bovine Serum, Sigma #F4135, 2 mM L-Glutamine, Pfizer media prep, 100 U/mL penicillin, Pfizer media prep, and 200 μg/ml streptomycin, Pfizer media prep), and cultured at 37° C., 5% CO2 incubator for 18 hours. Growth medium was removed by vacuum aspiration (V&P Scientific #vp187 bp-60), and 90 μL of pre-warmed assay medium (DMEM with 0.2% BSA, Miltenyi #130-091-376) was added to each well and incubated for 15 minutes at 37° C. 10 μL of vehicle control or test compound (final concentration range of 0.3 nM to 10 μM with 0.1% DMSO) was added to the cells. Plates were incubated at 37° C. for 1 hour. After compound incubation, 10 μL of 220 ng/mL recombinant human IFNγ (R&D Systems #285-IF, final rhIFNγ concentration of 20 ng/mL) was added to the cells and plates were incubated for 30 minutes at 37° C. Wells containing A549 cells, medium with 0.1% DMSO and no rhIFNγ were used as background controls. After rhIFNγ stimulation, media was aspirated from each well and 35 μL/well of iced-cold MSD lysis buffer containing protease and phosphatase inhibitors from Phospho-STAT3 Tyr705 assay kit (Meso-Scale Discovery #K150DID) was added to each well. Plates were incubated at 4° C. with shaking for 30 minutes. Cell lysates were assayed following the MSD Phospho-STAT3 Tyr705 assay kit protocol to detect pSTAT3.
Data were collected and transformed into percent inhibition and calculated using the following formula: […]

IC50 [nM]	Structure (SMILES)
59.7	CNC(=O)c1n[nH]c2cc(-c3cc(F)c(O)cc3CC(F)(F)F)nc(NCc3nccnc3N(C)S(=O)(=O)c3ccccc3)c12 [Example 44, 6-[5-fluoro-4-hydroxy-2-(2,2,2-trifluoroethyl)phenyl]-N-methyl-4-[({3-[methyl(phenylsulfonyl)amino]pyrazin-2-yl}methyl)amino]-1H-pyrazolo[4,3-c]pyridine-3-carboxamide]
46.5	CCN(c1nccnc1CNc1nc(-c2cc(F)c(O)cc2CC(F)(F)F)cc2[nH]nc(C(=O)NC)c12)S(C)(=O)=O [Example 45, 4-[({3-[ethyl(methylsulfonyl)amino]pyrazin-2-yl}methyl)amino]-6-[5-fluoro-4-hydroxy-2-(2,2,2-trifluoroethyl)phenyl]-N-methyl-1H-pyrazolo[4,3-c]pyridine-3-carboxamide]
282	CN(c1ccccc1CNc1nc(-c2cc(F)c(O)cc2C2CC2)cc2[nH]nc(C(N)=O)c12)S(C)(=O)=O [Example 47, 6-(2-cyclopropyl-5-fluoro-4-hydroxyphenyl)-4-({2-[methyl(methylsulfonyl)amino]benzyl}amino)-1H-pyrazolo[4,3-c]pyridine-3-carboxamide]
> 10000	CNC(=O)c1n[nH]c2cc(-c3cc(F)c(O)cc3CC(F)(F)F)nc(NCc3cnccc3N(C)S(C)(=O)=O)c12 [Example 48, 6-[5-fluoro-4-hydroxy-2-(2,2,2-trifluoroethyl)phenyl]-N-methyl-4-[({4-[methyl(methylsulfonyl)amino]pyridin-3-yl}methyl)amino]-1H-pyrazolo[4,3-c]pyridine-3-carboxamide]
385	CNC(=O)c1n[nH]c2cc(-c3cc(F)c(O)cc3C3CC3)nc(NCc3cccnc3N(C)S(C)(=O)=O)c12 [Example 49, 6-(2-cyclopropyl-5-fluoro-4-hydroxyphenyl)-N-methyl-4-[({2-[methyl(methylsulfonyl)amino]pyridin-3-yl}methyl)amino]-1H-pyrazolo[4,3-c]pyridine-3-carboxamide]
182	CNC(=O)c1n[nH]c2cc(-c3cc(F)c(O)cc3CC(F)(F)F)nc(NCc3nccnc3N(C)S(C)(=O)=O)c12 [Example 51, 6-[5-fluoro-4-hydroxy-2-(2,2,2-trifluoroethyl)phenyl]-N-methyl-4-[({3-[methyl(methylsulfonyl)amino]pyrazin-2-yl}methyl)amino]-1H-pyrazolo[4,3-c]pyridine-3-carboxamide]
74.3	CCN(c1ncccc1CNc1nc(-c2cc(F)c(O)cc2CC(F)(F)F)cc2[nH]nc(C(N)=O)c12)S(C)(=O)=O [Example 52, 4-[({2-[ethyl(methylsulfonyl)amino]pyridin-3-yl}methyl)amino]-6-[5-fluoro-4-hydroxy-2-(2,2,2-trifluoroethyl)phenyl]-1H-pyrazolo[4,3-c]pyridine-3-carboxamide]
21.3	CNC(=O)c1n[nH]c2cc(-c3cc(F)c(O)cc3CC(F)(F)F)nc(NCc3cccnc3N(C)S(C)(=O)=O)c12 [Example 53, 6-[5-fluoro-4-hydroxy-2-(2,2,2-trifluoroethyl)phenyl]-N-methyl-4-[({2-[methyl(methylsulfonyl)amino]pyridin-3-yl}methyl)amino]-1H-pyrazolo[4,3-c]pyridine-3-carboxamide]
156	CNC(=O)c1n[nH]c2cc(-c3cc(F)c(O)cc3CC(F)(F)F)nc(NCc3ncccc3N(C)S(C)(=O)=O)c12 [Example 55, 6-[5-Fluoro-4-hydroxy-2-(2,2,2-trifluoroethyl)phenyl]-N-methyl-4-[({3-[methyl(methylsulfonyl)amino]pyridin-2-yl}methyl)amino]-1H-pyrazolo[4,3-c]pyridine-3-carboxamide]
174	CNC(=O)c1n[nH]c2cc(-c3cc(F)c(O)cc3CC(F)(F)F)nc(NCc3ccccc3N(C)S(=O)(=O)c3cn[nH]c3)c12 [Example 58, 6-(5-fluoro-4-hydroxy-2-(2,2,2-trifluoroethyl)phenyl)-N-methyl-4-((2-(N-methyl-1H-pyrazole-4-sulfonamido)benzyl)amino)-1H-pyrazolo[4,3-c]pyridine-3-carboxamide]
34.4	CNC(=O)c1n[nH]c2cc(-c3cc(F)c(O)cc3CC(F)(F)F)nc(NCc3ccccc3N(C)S(=O)(=O)CCOC)c12 [Example 60, 6-[5-fluoro-4-hydroxy-2-(2,2,2-trifluoroethyl)phenyl]-4-[(2-{[(2-methoxyethyl)sulfonyl](methyl)amino}benzyl)amino]-N-methyl-1H-pyrazolo[4,3-c]pyridine-3-carboxamide]
71.2	CN(c1ccccc1CNc1nc(-c2cc(F)c(O)cc2CC(F)(F)F)cc2[nH]nc(C(N)=O)c12)S(=O)(=O)c1cccnc1 [Example 61, 6-[5-fluoro-4-hydroxy-2-(2,2,2-trifluoroethyl)phenyl]-4-({2-[methyl(pyridin-3-ylsulfonyl)amino]benzyl}amino)-1H-pyrazolo[4,3-c]pyridine-3-carboxamide]
71.8	CN(c1ncccc1CNc1nc(-c2cc(F)c(O)cc2CC(F)(F)F)cc2[nH]nc(C(N)=O)c12)S(C)(=O)=O [Example 62, 6-[5-fluoro-4-hydroxy-2-(2,2,2-trifluoroethyl)phenyl]-4-[({2-[methyl(methylsulfonyl)amino]pyridin-3-yl}methyl)amino]-1H-pyrazolo[4,3-c]pyridine-3-carboxamide]
14.6	CCN(c1ncccc1CNc1nc(-c2cc(F)c(O)cc2CC(F)(F)F)cc2[nH]nc(C(=O)NC)c12)S(C)(=O)=O [Example 63, 4-[({2-[ethyl(methylsulfonyl)amino]pyridin-3-yl}methyl)amino]-6-[5-fluoro-4-hydroxy-2-(2,2,2-trifluoroethyl)phenyl]-N-methyl-1H-pyrazolo[4,3-c]pyridine-3-carboxamide]
213	CNC(=O)c1n[nH]c2cc(-c3cc(F)c(O)cc3CC(F)(F)F)nc(NCc3ccccc3CS(N)(=O)=O)c12 [Example 64, 6-[5-fluoro-4-hydroxy-2-(2,2,2-trifluoroethyl)phenyl]-N-methyl-4-{[2-(sulfamoylmethyl)benzyl]amino}-1H-pyrazolo[4,3-c]pyridine-3-carboxamide]
161	CN(c1ccccc1CNc1nc(-c2cc(F)c(O)cc2CC(F)(F)F)cc2[nH]nc(C(N)=O)c12)S(=O)(=O)c1ccc(N2CCOCC2)nc1 [Example 65, 6-[5-fluoro-4-hydroxy-2-(2,2,2-trifluoroethyl)phenyl]-4-{[2-(methyl{[6-(morpholin-4-yl)pyridin-3-yl]sulfonyl}amino)benzyl]amino}-1H-pyrazolo[4,3-c]pyridine-3-carboxamide]
221	CN(c1ccccc1CNc1nc(-c2cc(F)c(O)cc2CC(F)(F)F)cc2[nH]nc(C(N)=O)c12)S(=O)(=O)CCCN1CCOCC1 [Example 66, 6-[5-fluoro-4-hydroxy-2-(2,2,2-trifluoroethyl)phenyl]-4-{[2-(methyl{[3-(morpholin-4-yl)propyl]sulfonyl}amino)benzyl]amino}-1H-pyrazolo[4,3-c]pyridine-3-carboxamide]
104	CNC(=O)c1n[nH]c2cc(-c3cc(F)c(O)cc3CC(F)(F)F)nc(NCc3cc(C)cnc3N(C)S(C)(=O)=O)c12 [Example 67, 6-[5-fluoro-4-hydroxy-2-(2,2,2-trifluoroethyl)phenyl]-N-methyl-4-[({5-methyl-2-[methyl(methylsulfonyl)amino]pyridin-3-yl}methyl)amino]-1H-pyrazolo[4,3-c]pyridine-3-carboxamide]
43.9	CNC(=O)c1n[nH]c2cc(-c3cc(F)c(O)cc3CC(F)(F)F)nc(NCc3ccccc3N(C)S(=O)(=O)c3cccnc3)c12 [Example 68, 6-[5-fluoro-4-hydroxy-2-(2,2,2-trifluoroethyl)phenyl]-N-methyl-4-({2-[methyl(pyridin-3-ylsulfonyl)amino]benzyl}amino)-1H-pyrazolo[4,3-c]pyridine-3-carboxamide]
91.6	CNC(=O)c1n[nH]c2cc(-c3cc(F)c(O)cc3CC(F)(F)F)nc(NCc3ccccc3N(C)S(=O)(=O)c3ccc(C)nc3)c12 [Example 69, 6-[5-fluoro-4-hydroxy-2-(2,2,2-trifluoroethyl)phenyl]-N-methyl-4-[(2-{methyl[(6-methylpyridin-3-yl)sulfonyl]amino}benzyl)amino]-1H-pyrazolo[4,3-c]pyridine-3-carboxamide]
46.2	Cc1ccc(S(=O)(=O)N(C)c2ccccc2CNc2nc(-c3cc(F)c(O)cc3CC(F)(F)F)cc3[nH]nc(C(N)=O)c23)cn1 [Example 70, 6-[5-fluoro-4-hydroxy-2-(2,2,2-trifluoroethyl)phenyl]-4-[(2-{methyl[(6-methylpyridin-3-yl)sulfonyl]amino}benzyl)amino]-1H-pyrazolo[4,3-c]pyridine-3-carboxamide]
110	CCN(c1ncc(Cl)cc1CNc1nc(-c2cc(F)c(O)cc2CC(F)(F)F)cc2[nH]nc(C(N)=O)c12)S(C)(=O)=O [Example 71, 4-[({5-chloro-2-[ethyl(methylsulfonyl)amino]pyridin-3-yl}methyl)amino]-6-[5-fluoro-4-hydroxy-2-(2,2,2-trifluoroethyl)phenyl]-1H-pyrazolo[4,3-c]pyridine-3-carboxamide]
